Measured values from patent publication US20100028892A1, “YEAST BASED EXPRESSION OF PROTEASES AND METHODS OF USE” (Burnham Institute for Medical Research, priority 2008, published 2010).

Columns and labels:
[1] = biological target: T1, Caspase6 (Homo sapiens, UniProt P55212); assay: yeast 384 well β-galactosidase reporter assay, Caspase6; type: cell-based; conditions: Caspase6 in yeast, 384 well β-galactosidase activity assay
T1 construct: each full-length Caspase construct was expressed (for Caspases-1, 2, 3, 4, 5, 6, 7, and 9) at high levels; HA (N); expressed in transfected cells; host or cells: Saccharomyces cerevisiae (EGY48)
T1 sequence (P55212 1-293): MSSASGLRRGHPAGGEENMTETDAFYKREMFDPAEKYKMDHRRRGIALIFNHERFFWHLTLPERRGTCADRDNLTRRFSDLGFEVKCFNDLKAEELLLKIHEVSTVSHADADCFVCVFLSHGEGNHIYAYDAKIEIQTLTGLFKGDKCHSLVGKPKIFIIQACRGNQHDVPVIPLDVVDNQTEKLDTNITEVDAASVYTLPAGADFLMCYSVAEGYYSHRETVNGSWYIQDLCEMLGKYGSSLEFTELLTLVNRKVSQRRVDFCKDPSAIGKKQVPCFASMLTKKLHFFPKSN
Excerpt: (§1) When converting the yeast-based protease reporter system to HTS assay, conditions from agar plates to liquid medium in microtiter wells must be revised. This revision comprises, utilizing the measured β-galactosidase produced by yeast carrying the Caspase-cleavable reporter proteins, and assaying the colorimetric product (OD620nm) derived from X-gal substrate in 384 well plates, as a measure of the lacZ reporter gene activity. We compared β-galactosidase activity produced in the presence or absence of the broad-spectrum caspase inhibitory compound, zVAD-fmk ([…]-Valinyl-Alaninyl-Aspartyl-fluoromethylketone). […] Note that it was determined that it is not advisible to employ glucose in yeast media because it represses the GAL1 promoter used in some plasmids. […]
(§2) Yeast expressing various Caspases alone (at high levels) or in combination with upstream activators (at low levels) and cleavable substrates containing appropriate tetrapeptides reorganized by these proteases were used in 384 well β-galactosidase activity assays to assess inhibition by zVAD-fmk. The compound was titrated into assays at various concentrations and percentage inhibition was determined.
(§3) Assays were performed in a total volume of […] in triplicate. […] Absorbance at 620 nm was measured 2-3 days after culture at 30° C.

[2] = test system: Caspases; assay: validation of 384 well yeast-based Caspase-dependent lacZ reporter gene assays with pharmacological inhibitors; type: cell-based, human
Excerpt: When converting the yeast-based protease reporter system to HTS assay, conditions from agar plates to liquid medium in microtiter wells must be revised. This revision comprises, utilizing the measured β-galactosidase produced by yeast carrying the Caspase-cleavable reporter proteins, and assaying the colorimetric product (OD620nm) derived from X-gal substrate in 384 well plates, as a measure of the lacZ reporter gene activity. We compared β-galactosidase activity produced in the presence or absence of the broad-spectrum caspase inhibitory compound, zVAD-fmk ([…]-Valinyl-Alaninyl-Aspartyl-fluoromethylketone). Among the variables that were initially interrogated were initial seeding cell density, time of culture, concentration of X-gal substrate, and supporting carbohydrate (raffinose vs mannose). Note that it was determined that it is not advisible to employ glucose in yeast media because it represses the GAL1 promoter used in some plasmids. An example of data obtained using the plural-component system of Fas/FADD/Caspase-8 is presented. All variables tested altered the signal:noise ratio of the assay. […] For the two-component system of ASC/Caspase-1 and for the plural-component system of NALP1ΔLRR/ASC/Caspase-1, the same conditions were optimal, among those tested (not shown). For the Fas/Fadd/Caspase 8, the caspase and adaptor protein (Fadd) were expressed at relatively small amounts (a weak promoter and low copy number plasmid are used) and the upstream activator (Fas) was expressed in a large amount.
The 384 well assay format was further validated, using zVAD-fmk, a peptidyl inhibitor with broad-spectrum activity against animal Caspases. […]
The validation results of a yeast-based Caspase assay using a pharmacological inhibitor of Caspases are shown in FIG. 11 consisting of FIGS. 11A-C (A) Caspase-1, single-component assay. […] For (A-C), relative absorbance at 620 nm was measured (mean ±std dev; n=3-5 independent experiments). […]
as §3

[3] = biological target: T2, Caspase9 activated with Apaf* (Homo sapiens, UniProt P55211); assay: yeast 384 well β-galactosidase reporter assay, Caspase9 activated with Apaf*; type: cell-based; conditions: Caspase9 activated with Apaf* in yeast, 384 well β-galactosidase activity assay
T2 construct: Caspase (all full-length zymogen proforms) expression plasmids; HA (N); expressed in transfected cells; host or cells: Saccharomyces cerevisiae EGY48
T2 sequence (P55211 1-416): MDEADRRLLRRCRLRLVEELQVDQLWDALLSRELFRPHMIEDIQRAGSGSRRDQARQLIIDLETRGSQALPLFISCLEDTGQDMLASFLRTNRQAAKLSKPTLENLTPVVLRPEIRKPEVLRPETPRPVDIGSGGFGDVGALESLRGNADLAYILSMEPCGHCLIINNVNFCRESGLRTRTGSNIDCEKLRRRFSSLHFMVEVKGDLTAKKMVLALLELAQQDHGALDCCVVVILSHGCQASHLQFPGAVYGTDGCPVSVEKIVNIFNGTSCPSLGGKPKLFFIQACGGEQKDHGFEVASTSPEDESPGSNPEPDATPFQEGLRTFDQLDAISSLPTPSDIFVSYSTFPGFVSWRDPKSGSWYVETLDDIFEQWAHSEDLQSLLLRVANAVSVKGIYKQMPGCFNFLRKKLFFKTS
Excerpt: as §1, §2, §3

Substance: benzoyl-Valinyl-Alaninyl-Aspartyl-fluoromethylketone [zVAD-fmk]
- IC50 [1]: 6.78 µM
- effect on β-galactosidase activity / activation of the lacZ reporter gene ([2]; 384 well yeast-based Caspase-dependent reporter gene assay): inhibited β-galactosidase activity in a dose-dependent fashion
- IC50 ([2]; range over the yeast-based Caspase assays, 384 well format, read-out: concentration required for achieving 50% inhibition of β-galactosidase activity): 1 to 10 µM
- IC50 [3]: 10.7 µM
